Data set [1] deals with subacute back pain (SBP) participants. Kind of data set: Double-blind randomized trial of LDP+NPX vs PLC+NPX in subacute back pain; phone NRS pain ratings. It is filed as in vivo, human. Particulars: for One-week average pain ratings, pain intensity (0-10), Mean ± SEM: phone NRS 0-10 scale. From the text: The main outcome measure was a Numerical Rating Scale (NRS),^19 where “0” corresponds to no pain and “10” indicates worst possible pain. On this scale, participants provided ratings of their current pain up to three times a day during study participation (6 months), via a smartphone app (phone NRS).
Treatment-related percentage residual pain was computed relative to the average phone-NRS score from the week preceding start of treatment, for every subject and every day, and then averaged across subjects for each treatment type (FIG. 2A). Over the treatment period, a rapid decrease in back pain intensity was observed that, in the NoTx group, stabilizes (with large fluctuations) at around 80% residual pain, while in the LDP+NPX and PLC+NPX groups residual pain continues to decrease for the duration of treatment, reaching a residual pain of about 50%. […] Remarkably in all three groups, the observed pain relief persisted after cessation of treatment, over the next 12 weeks.
This 24-week double-blind parallel randomized controlled trial was conducted at Northwestern University (Chicago, USA). Protocol and informed consent form were approved by Northwestern University IRB as well as NIDCR/NIH. All enrolled participants provided written informed consent. Safety and trial oversight were monitored by an independent data safety monitoring board and a clinical research organization, with NIDCR/NIH oversight. The trial was registered on ClinicalTrials.gov, under registry NCT01951105.
• Eligible subjects first underwent a brain imaging session and, using predefined brain-derived parameters, were stratified into high and low-risk subgroups for transitioning to CBP. Those in the low-risk category, who had 60% or higher probability of recovering naturally, entered the NoTx arm; the rest, who had less than 60% probability of recovering naturally, were randomized between a placebo-control arm, and a pharmacological treatment arm. A flexible dose escalation procedure was used and both researchers and participants were blinded to treatment type. Study medications were tapered off at week 12, and participants continued to be evaluated for another 12 weeks. At final visit, participants underwent a second brain scan.
The design was setup to evaluate safety, efficacy and gender dependence of the combination of carbidopa/levodopa (12.5 mg/50 mg-25 mg/100 mg-50 mg/200 mg, dose escalation based on response) plus naproxen 250 mg (LDP+NPX) administered three times a day, compared to placebo plus naproxen 250 mg (PLC+NPX) administered three times a day.
Treatment with carbidopa/levodopa was titrated up to 12.5 mg/50 mg three times/day over one week and then continued at that level for 4 weeks. If by the end of the initial 4-week period the participant “responded” [had >20% decrease in pain intensity from the average of all phone NRS ratings collected at baseline (between visit 1 and visit 3) to the average of all phone NRS ratings during those 5 weeks], the participant was maintained on that dose for the duration of the treatment period (12 weeks total). If there was no response, the carbidopa/levodopa dose was increased to 25 mg/100 mg three times/day for the following 4 weeks, at which time the pain status was re-evaluated (based on the average of all phone NRS rating during those four weeks, against baseline average). Again, if a response occurred, that dose was maintained in a blinded manner for the following 4 weeks of treatment; if not, further dose-titration carbidopa/levodopa occurred to 50 mg/200 mg three times/day for the final 4 weeks. When a participant experienced an adverse event at higher doses, the participant was given the next lower dose that s/he was able to tolerate and then maintained on that dose for the remainder of the 12-week dosing period. Naproxen dose (250 mg three times/day) remained constant for all participants throughout the study, except it was not given during the tapering down at the end of the study. […]

For data set [2] the following is noted: human, in vivo.
Protocol: The study consisted of eight visits spread over ˜28 weeks, which included an initial screening/monitoring period (˜2 weeks), followed by a treatment period (12 weeks) and a post-treatment observational period (12 weeks). Safety and adverse events were assessed at each clinical visit, including vital signs. At each visit, researchers reminded participants to take their medication according to instructions. Safety was also assessed through blood screenings at baseline, while blood pressure, pulse and temperature were assessed at all study visits.
Adverse events (AEs) that occurred during treatment and those that occurred after treatment were differentiated. However, to account for potential late onset AEs or those related to withdrawal of medication, AEs occurring during a certain window after treatment were considered to be “during treatment”.
Analyses were done using MATLAB 2016a, JMP Pro version 13.2 (SAS Institute, Cary, N.C.) and SPSS version 25. Safety analyses included all participants who received at least one dose of the study drug.

“Also recorded” adds a separate entry of the source.

In the case of placebo+naproxen [PLC+NPX], in data set [1] (3 and 6 months, by gender), the “Response rates across response criteria (80%-20% residual pain), in words” value was “less effective yielding similar response rates in males and females; also recorded: less effective and similar among males and females”. Moreover, the “One-week average pain ratings, pain intensity (0-10), Mean ± SEM” value in data set [1] (3 months (end of treatment)) amounted to 2.4 ± 0.4; in data set [1] (6 months (3 months after end of treatment)), 2.2 ± 0.4; in data set [1] (BL (baseline)), 5.1 ± 0.3. Also, the “Efficacy by gender (residual pain, in words)” value in data set [1] (females vs males, residual pain at six months) is recorded as “more effective than LDP+NPX in males”. Besides, in data set [1] (males), the “Males showing at least 80% improvement” value was found to be 38%. The “Residual pain reached over duration of treatment” value in data set [1] (relative to average phone-NRS of week preceding treatment, 12-week treatment) is “about 50%”.
For levodopa/carbidopa [LDP], the “Safety / tolerability in words” value in data set [2] is reported as “No adverse effects specifically linked to LDP use were observed”.

Source of the values: US20220401391A1, “METHODS AND COMPOSITIONS FOR TREATING PAIN” (Apkarian Technologies LLC, priority 2019, published 2022).
